# According to PubChem BioAssay (NCI):
#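 Values below derive from 48-hour exposures of cells grown in 96-well plates, with endpoints linearly interpolated between the two concentrations bracketing the appropriate inhibition level. GI50 = concentration required for 50% inhibition of growth. Definition used: TGI = concentration required for complete inhibition of growth.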
# What was measured:
# Test in all cases: DTP human tumour cell line panel, 48 h
# ACHN renal = system: ACHN renal
# CCRF-CEM leukemia = system: CCRF-CEM leukemia
# HOP-62 NSCLC = system: HOP-62 NSCLC
# HT29 colon = system: HT29 colon
# MALME-3M melanoma = system: MALME-3M melanoma
# MCF7 breast = system: MCF7 breast
# SK-MEL-28 melanoma = system: SK-MEL-28 melanoma
# SK-OV-3 ovarian = system: SK-OV-3 ovarian
# SN12C renal = system: SN12C renal
# UACC-62 melanoma = system: UACC-62 melanoma
SMILES,GI50 (ACHN renal) [µM],TGI (ACHN renal) [µM],GI50 (CCRF-CEM leukemia) [µM],TGI (CCRF-CEM leukemia) [µM],GI50 (HOP-62 NSCLC) [µM],TGI (HOP-62 NSCLC) [µM],GI50 (HT29 colon) [µM],TGI (HT29 colon) [µM],GI50 (MALME-3M melanoma) [µM],TGI (MALME-3M melanoma) [µM],GI50 (MCF7 breast) [µM],TGI (MCF7 breast) [µM],GI50 (SK-MEL-28 melanoma) [µM],TGI (SK-MEL-28 melanoma) [µM],GI50 (SK-OV-3 ovarian) [µM],TGI (SK-OV-3 ovarian) [µM],GI50 (SN12C renal) [µM],TGI (SN12C renal) [µM],GI50 (UACC-62 melanoma) [µM],TGI (UACC-62 melanoma) [µM]
CCNCCNc1cc(-c2ccc(F)cc2)c(C#N)c2nc3ccccc3n12,1.87,3.51,2.77,6.52,18.2,32.8,3.06,11,1.77,3.45,3.31,13.5,1.86,3.59,13.5,26.4,3.89,14.4,1.9,3.95
COc1cc(C2C(C#N)=C(N)OC3=C2C(=O)c2ccccc2C3=O)cc(OC)c1OC (configuration not stated),0.571,16.6,,,0.961,17.7,3.45,41.3,1.18,13.7,0.422,16.1,6.72,22.9,4.88,> 100,1.3,11.1,0.396,2.02
N#Cc1nc(-c2ccccc2)oc1S(=O)(=O)N1CCOCC1,1.76,3.15,1.73,14.6,34.7,> 100,4.82,25.4,1.59,3.15,2.74,13.1,2.46,6.5,56.2,> 100,4.12,17.1,9.33,21.4
COc1ccc2c3c(c(OCCCN(C)C)nc2c1)-c1ccc(Cl)cc1C3=O,1.26,4.26,7.89,66,7.71,25.3,2.01,17.6,10.7,26.4,1.27,13,12.1,27,12.2,26.7,5.33,21.3,10.7,23.6
CC(=O)N1CC(F)(F)c2c(Sc3ncc(N4CCC5(CC4)COC[C@H]5N)nc3N)cccc21,9.03,51.4,18.7,68.5,3.69,75.1,14.2,52.9,15.5,31.5,15.8,55.6,16.1,30.7,3.75,> 100,25.8,> 100,18,36.1
O=C(/C=C/c1cccc(Cl)c1)c1ccc(Cl)cc1Cl,15.3,38.4,,,17.4,> 50,,,,,3.49,> 50,9.69,26.6,9.91,21.7,14.7,32,11.1,29
CC[C@H](C)[C@H](NC(=O)C12C3C4C1C1C2C3C41NC(C)=O)C(=O)N(C)[C@H](C[C@@H](OC(C)=O)c1nc(C(=O)N[C@@H](Cc2ccccc2)C[C@H](C)C(=O)OC)cs1)C(C)C (some centres not stated),2.53,> 14.3,0.361,> 14.3,0.618,> 14.3,0.36,2.47,,> 14.3,0.0503,> 14.3,> 3.7,> 14.3,0.703,> 14.3,0.799,> 14.3,0.112,> 14.3
Oc1ccccc1-n1c(-c2ccccc2)ccc1-c1ccccc1,9.13,21.2,4.77,71.1,11.3,24.2,2.22,11,2.9,16.2,5.08,16.5,10.8,31.6,8.93,> 100,3.62,16,5.43,> 100
Cn1c(=O)c2[nH]c(COc3ccc(C(C)(C)C)cc3)nc2n(C)c1=O,9.58,89.8,,,35.4,> 100,29.3,> 100,18.2,58.8,17.1,62.8,28.8,> 100,51.6,> 100,33.4,> 100,5.56,72.4
Cc1cc(C)nc(NS(=O)(=O)c2ccc(NC(=O)c3cccc4cc5ccccc5nc34)cc2)n1,,> 100,,77.5,,> 100,,> 100,,56.7,,,,> 100,,> 100,,> 100,,79.3
COC(=O)C1=C(C(=O)OC)C2(C(=O)OC)OC1(OC)C(C1(C(=O)OC)C(C(=O)OC)=C1C(=O)OC)=C2C(=O)OC (configuration not stated),,> 100,,> 100,,> 100,,> 100,,> 100,,,,> 100,,> 100,,> 100,,> 100
Cc1cc(C)c(C(=O)OC(c2ccccc2)C(c2ccccc2)N2CCOCC2)c(C)c1 (configuration not stated),,> 100,,> 100,,> 100,,> 100,,> 100,,,,> 100,,> 100,,> 100,,> 100
COc1ccc(C(Nc2ncccn2)c2cc3c(cc2O)OCO3)cc1 (configuration not stated),,> 100,,,,54.5,,58.4,,54.6,,77.3,,52.4,,51.2,,37.8,,> 100
C=C(C)[C@H]1CC/C(C)=C/CCC(C)C(=O)CC/C(CO)=C\[C@@H]1O (some centres not stated),> 100,> 100,44.6,> 100,> 100,> 100,,,55.3,> 100,> 100,> 100,7.9,> 100,> 100,> 100,> 100,> 100,67.6,> 100
C#Cc1ccc(NC(=O)c2ccc(/C=C/C(=O)c3nccn3C)cc2)cc1,0.445,0.839,0.486,1.59,0.612,1.65,0.54,1.32,0.486,1.19,0.3,1.09,0.521,1.24,0.979,24.3,,,0.481,1.12
O=Nc1c(O)ccc2ccccc12,2.16,7.52,3.16,11.4,12.9,26.1,3.41,10.7,,,2.03,4.71,2.8,6.6,15.3,28.9,1.75,3.4,1.86,3.83
O=C1C2=C(c3ccccc31)C(c1ccccc1Cl)N1C(=O)CSC1=N2 (configuration not stated),,> 100,,> 100,,> 100,,> 100,,> 100,,,,> 100,,> 100,,> 100,,> 100

SMILES,GI50 (ACHN renal) [µM],TGI (ACHN renal) [µM],GI50 (CCRF-CEM leukemia) [µM],TGI (CCRF-CEM leukemia) [µM],GI50 (HOP-62 NSCLC) [µM],TGI (HOP-62 NSCLC) [µM],GI50 (HT29 colon) [µM],TGI (HT29 colon) [µM],GI50 (MALME-3M melanoma) [µM],TGI (MALME-3M melanoma) [µM],GI50 (MCF7 breast) [µM],TGI (MCF7 breast) [µM],GI50 (SK-MEL-28 melanoma) [µM],TGI (SK-MEL-28 melanoma) [µM],GI50 (SK-OV-3 ovarian) [µM],TGI (SK-OV-3 ovarian) [µM],GI50 (SN12C renal) [µM],TGI (SN12C renal) [µM],GI50 (UACC-62 melanoma) [µM],TGI (UACC-62 melanoma) [µM]
O=c1[nH]c(=S)[nH]c(O)c1/C=C1\C=CC=N1,,29.6,,75.5,,97.6,,54.2,,34.4,,,,48.5,,> 100,,22.5,,35.6
COc1cc(Br)c(CC2=NCCc3cc(OC)c(OC)cc32)cc1OC,,> 100,,> 100,,> 100,,> 100,,> 100,,,,> 100,,> 100,,> 100,,> 100
Fc1ccc(-c2ncn(C3CCNCC3)c2-c2ccnc(Oc3cccc(F)c3)n2)cc1,8.58,> 25,,,> 21.8,> 25,4.5,8.6,6.71,16.8,7.38,> 20.4,5.46,11.6,> 22.1,> 25,19.1,> 25,10.5,> 18.6
C=C(C)C1/C=C(/C(C)C)CC[C@]2(C)O[C@@H]2CC[C@H](C)CC1=O (some centres not stated),72.4,> 100,18.5,37.3,76,> 100,,,36.1,> 100,50.7,> 100,> 100,> 100,> 100,> 100,> 100,> 100,80.2,> 100
CCOC(=O)C(C[Si](C)(C)C)P(=O)(OCC)OCC (configuration not stated),,> 100,,> 100,,> 100,,> 100,,> 100,,,,> 100,,> 100,,> 100,,> 100
O=Cc1coc2ccccc2c1=O,,45.2,,69.7,,43.8,,46.1,,30.2,,45.7,,,,50.9,,58.6,,52.8
O=C(NNS(=O)(=O)c1cc(C(F)(F)F)cc(C(F)(F)F)c1)c1cnn(-c2ccc(Cl)cc2)c1C(F)(F)F,21.6,51.2,,,18.2,34.3,31.7,> 100,16.9,34.3,21.5,58.9,20.3,51.7,22.9,61.7,17.2,34.8,14.5,30
CC1OC(O)C(O)C(O)C1O (configuration not stated),,> 100,,,,> 100,,> 100,,> 100,,> 100,,> 100,,> 100,,> 100,,> 100
C[Si](C)(C)/C=C/CN1C(=O)CCC1O (configuration not stated),,> 100,,> 100,,> 100,,> 100,,> 100,,,,> 100,,> 100,,> 100,,> 100
O=C1/C(=C/c2cccs2)CCC/C1=C\c1cccs1,57,> 100,,,21.9,49.2,> 100,> 100,> 48.8,> 100,0.529,> 100,> 72.2,> 100,26.5,74.2,> 100,> 100,> 54.3,> 100
CCOC(=O)C12CC1(C(=O)OCC)C1CCC2C1 (configuration not stated),,> 100,,> 100,,> 100,,> 100,,> 100,,,,> 100,,> 100,,> 100,,> 100
Fc1ccccc1C1CC(C(c2ccccc2)c2ccccc2)=Nc2ccccc2S1 (configuration not stated),,43.6,,5.57,,26.9,,26.3,,29.5,,,,25.1,,68.6,,26,,18.7
CCCCCCCCCC(=O)CC(=O)c1c(O)cccc1O,,83.4,,61,,> 100,,65.8,,74.4,,,,> 100,,64.1,,53.4,,> 100
O=c1cccccc1NCCCCNc1cccccc1=O,,> 100,,> 100,,> 100,,> 100,,> 100,,,,> 100,,> 100,,> 100,,> 100
CC(=O)OC1CCC2(C)C(=CC(C3C=C4CC(OC(C)=O)CCC4(C)C4=C3C3CC5OC6(CCC(C)CO6)C(C)C5C3(C)CC4)C3=C2CCC2(C)C3CC3OC4(CCC(C)CO4)C(C)C32)C1 (configuration not stated),,29.2,,,,32.5,,27.2,,26.4,,21.9,,31.5,,32.7,,31.9,,26.1
CC(C)(C)CC(C)(C)c1ccc(OCCOCCSC(=N)N)cc1,1.72,3.22,2.46,6.02,1.87,3.36,1.78,3.42,,,1.51,3.22,1.72,3.24,2.74,7.39,1.81,3.62,1.75,3.24
